Structures can show the parent of a compound that is named as a salt. Where two headings read alike, the source gives them in different places.
What was measured:
[1] = test system: Pseudomonas aeruginosa (PA01); test: MIC determination, microbroth dilution; assay type: cell-based
[2] = test system: Streptococcus pneumoniae (R6); test: MIC determination, microbroth dilution; assay type: cell-based; conditions: Streptococcus pneumoniae (R6); read-out: MIC S. pn.
[3] = test system: Neisseria gonorrhoeae (ATCC 49226); test: Agar MIC determination (Alamar Blue); assay type: cell-based; conditions: ATCC49226, agar MIC, read-out: MIC N.g.
[4] = test system: Klebsiella pneumoniae (ATCC 33495); test: MIC determination, microbroth dilution; assay type: cell-based; conditions: ATCC33495
[5] = test system: Proteus mirabilis (ATCC 25933); test: MIC determination, microbroth dilution; assay type: cell-based; conditions: ATCC25933
[6] = test system: Bacillus subtilis (ATCC 23857); test: MIC determination, microbroth dilution; assay type: cell-based; conditions: ATCC23857; Bacillus subtilis (ATCC 23857); read-out: MIC B.s.
[7] = test system: Enterococcus faecalis (ATCC 33186); test: MIC determination, microbroth dilution; assay type: cell-based; conditions: ATCC33186; Enterococcus faecalis (ATCC 33186); read-out: MIC E.f.
[8] = test system: Burkholderia cepacia (ATCC 25416); test: MIC determination, microbroth dilution; assay type: cell-based; conditions: Burkholderia cepacia
[9] = test system: Streptococcus pyogenes (ATCC 700294); test: MIC determination, microbroth dilution; assay type: cell-based; conditions: ATCC700294; Streptococcus pyogenes (ATCC 700294); read-out: MIC S. py.
Moraxella catarrhalis = test: MIC determination (Table 6); assay type: cell-based
Bacillus anthracis = test: microbe, parasite or virus in culture; assay type: cell-based; conditions: read-out: MIC B.a.
[10] = test system: Stenotrophomonas maltophilia (ATCC 13637); test: MIC determination, microbroth dilution; assay type: cell-based; conditions: ATCC13637; Stenotrophomonas maltophilia (ATCC 13637); read-out: MIC S.m.
[11] = test system: MRSA, Staphylococcus aureus (NRS70); test: MIC determination, microbroth dilution; assay type: cell-based; conditions: Staphylococcus aureus (NRS70); read-out: MIC MRSA
[12] = test system: Neisseria gonorrhoeae (ATCC 49226); test: Disc diffusion assay; assay type: cell-based; conditions: ATCC49226, 4 μg per disc, read-out: Zone of inhibition N.g.
[13] = test system: Neisseria meningitides (ATCC 13077); test: Disc diffusion assay; assay type: cell-based; conditions: ATCC13077, 4 μg per disc, read-out: Zone of inhibition N.m.
[14] = test system: M. tuberculosis clinical isolates; test: microbe, parasite or virus in culture; assay type: cell-based; conditions: Mycobacterium tuberculosis, H37RV, read-out: MIC H37Rv
Yersinia pestis = test: microbe, parasite or virus in culture; assay type: cell-based; conditions: read-out: MIC Y.p.
[15] = test system: Proteus vulgaris (ATCC 33420); test: MIC determination, microbroth dilution; assay type: cell-based; conditions: ATCC33420
[16] = test system: Haemophilus influenza (ATCC 49247); test: microbe, parasite or virus in culture; assay type: cell-based; conditions: ATCC49247; Haemophilus influenza; 4 μg per disc; range of at least two experiments; read-out: Zone of inhibition H.i.
[17] = test system: acinetobacter baumannii (ATCC 19606); test: MIC determination, microbroth dilution; assay type: cell-based; conditions: ATCC19606
[18] = test system: gram-positive and gram-negative bacteria; assay type: cell-based
E. coli K12 ΔtolC = test: microbe, parasite or virus in culture; assay type: cell-based; conditions: Escherichia coli, read-out: MIC E.c. Δtolc
[19] = test system: Escherichia coli (ATCC 700926); test: MIC determination, microbroth dilution; assay type: cell-based; conditions: ATCC700926; Escherichia coli (ATCC 700926); read-out: MIC E.c.
[20] = test system: Bacillus anthracis, Sterne 34F2; test: microbe, parasite or virus in culture; assay type: cell-based; conditions: STERNE34F2, read-out: MIC B.a.
Listeria monocytogenes = test: MIC determination (Table 6); assay type: cell-based
[21] = test system: Staphylococcus aureus (ATCC 29213); test: MIC determination, microbroth dilution; assay type: cell-based; conditions: ATCC29213; Staphylococcus aureus (ATCC 29213); read-out: MIC S.a.
S. pneumoniae D39x = test: Mouse challenge, mouse model of lung infection; assay type: in vivo; conditions: 72 hours post challenge
Protocol: Mice were treated with a 5 mg/kg dose b.i.d. of spectinomycin (indicated as “SPC” in the figure) or compound 2 (the compound number refers to the compound number and associated structure shown in Table 1), or vehicle. (Panel B) The bacterial burden of mice at 18 hours post-challenge with S. pneumoniae D39x. (Panel C) Representative bioluminescent images of mice at 72 hours post challenge.
All experimental animal protocols were approved by the St. Jude Children's Research Hospital Institutional Animal Care and Use Committee. Seven week old, female BalbC/J mice (Jackson Labs, Bar Harbor, Me.) we utilized in these studies. All mice were maintained in BSL2 facilities and all experiments were done under inhaled isoflurane (2.5%). Bacteria (strain D39x) were introduced by intranasal administration of 2×10^7 CFU in 25 μL PBS. Mice received no treatment, plasmalyte A (vehicle control), ampicillin (100 mg/kg), spectinomycin (50, 25, 5 mg/kg) or the respective compounds (50, 25, 5 mg/kg) at dosages indicated. Antibiotics were administered in a volume of 100 μL by subcutaneous […] starting at 18 hours post challenge, a time point when the mice have developed pneumonia and bacteria have translocated into the bloodstream. Mice were subsequently dosed every 12 hours until 96 hours post challenge. Mice were monitored daily for signs of infection and weight loss. Differences in time to death were compared via Kaplan-Meier survival estimates. Bacterial density in blood was quantified at 24, 48, 72, and 96 hours post infection via blood collection, serial dilution, and plating. Groups were then compared by Mann-Whitney to determine statistical significance. At 8 days following challenge, surviving mice were euthanized and bacterial loads in lungs determined by homogenization followed by serial dilution and plating. In all instances, surviving mice had completely cleared bacteria from both the lungs and the bloodstream by this time point.
Compound 2 was tested for anti-pneumococcal activity in mice as described above. […]

S. pneumoniae = test: Resistance frequency determination and cross resistance of spontaneous mutants; assay type: cell-based, Streptococcus pneumoniae; conditions: cross resistance testing of 2 mutants

CN[C@@H]1[C@H](O)[C@H](NC)[C@H]2O[C@]3(O)[C@H](O[C@@H]2[C@H]1O)O[C@H](C)C[C@@]3(O)CNCCCc1ccccc1 [compound 13, 3′-(R)-3′-(phenylpropylaminomethyl)dihydrospectinomycin Trihydrochloride]
MIC [1]: 200 mg/L | MIC [2]: 3.1 mg/L | MIC [3]: 12.5 to 25 mg/L | MIC [4]: 50 mg/L | MIC [5]: > 200 mg/L | MIC [6]: 6.3 mg/L | MIC [7]: 6.3 mg/L | MIC ([8]; ATCC25416, read-out: MIC B.c., Burkholderia cepacia (ATCC 25416)): > 200 mg/L | MIC ([8]; ATCC25416, read-out: MIC B.c., Burkholderia cepacia, Table 6): > 200 mg/L | MIC [9]: 3.1 mg/L | MIC (Moraxella catarrhalis): 0.4 mg/L | MIC (Bacillus anthracis): 3.1 to 6.3 mg/L | MIC [10]: 6.3 to 12.5 mg/L | MIC [11]: 12.5 to 25 mg/L | zone of inhibition at 4 µg/disc [12]: 15 mm | zone of inhibition at 4 µg/disc [13]: 21 mm | MIC [14]: 3.1 mg/L | MIC (Yersinia pestis): 50 mg/L | MIC [15]: ≥ 200 mg/L | zone of inhibition at 4 µg/disc [16]: 14 mm | MIC [17]: > 200 mg/L | MIC relative to parent SPC [18]: ~10 % of parent SPC | MIC (E. coli K12 ΔtolC): 6.3 mg/L | MIC [19]: 12.5 mg/L | MIC [20]: 3.1 to 6.3 mg/L | MIC (Listeria monocytogenes): 1.6 to 3.1 mg/L | MIC [21]: 12.5 mg/L

CN[C@@H]1[C@H](O)[C@H](NC)[C@H]2O[C@@]3(O)C(=O)C[C@@H](C)O[C@H]3O[C@@H]2[C@H]1O [spectinomycin]
bioluminescent images of mice (S. pneumoniae D39x): systemic bacterial infection | susceptibility of mutants resistant to 2 (S. pneumoniae): cross resistance

CN[C@H](CC(C)C)C(=O)N[C@H]1C(=O)N[C@@H](CC(N)=O)C(=O)N[C@H]2C(=O)N[C@H]3C(=O)N[C@H](C(=O)N[C@H](C(=O)O)c4cc(O)cc(O)c4-c4cc3ccc4O)[C@H](O)c3ccc(c(Cl)c3)Oc3cc2cc(c3O[C@@H]2O[C@H](CO)[C@@H](O)[C@H](O)[C@H]2O[C@H]2C[C@](C)(N)[C@H](O)[C@H](C)O2)Oc2ccc(cc2Cl)[C@H]1O [vancomycin]
susceptibility of mutants resistant to 2 (S. pneumoniae): susceptible

CC(=O)NC[C@H]1CN(c2ccc(N3CCOCC3)c(F)c2)C(=O)O1 [linezolid]
susceptibility of mutants resistant to 2 (S. pneumoniae): susceptible

CC1(C)S[C@@H]2[C@H](NC(=O)[C@H](N)c3ccccc3)C(=O)N2[C@H]1C(=O)O [ampicillin]
susceptibility of mutants resistant to 2 (S. pneumoniae): susceptible

— patent US10266544B2, “Aryl substituted aminomethyl spectinomycin analogs as antibacterial agents” (ST. JUDE CHILDREN'S RESEARCH HOSPITAL, INC., priority 2013, dated 2019)
